# Assay results published in ChEMBL document CHEMBL5226360, “Pseudoprolines as stereoelectronically tunable proline isosteres” (Bioorg Med Chem Lett, 2022).
# Starred links: 1 amine or outer side, 2 acyl side, 3 side chain; linkers in the order of their positions; H or OH if unused. Non-standard residues stand in square brackets, D forms with d. Residues, ends and D or L forms follow the SMILES beside them. X3 = O=C1C[C@](Cc2ccc(O)cc2)(N[*:1])[C@@H]2SC[C@@H](C(=O)[*:2])N12; X4 = O=C1C[C@](Cc2ccc(O)cc2)(N[*:1])[C@H]2SC[C@@H](C(=O)[*:2])N12; X1 = CC1(C)SC[C@@H](C(=O)[*:2])N1[*:1]; X2 = CC1(C)OC[C@@H](C(=O)[*:2])N1[*:1]; Thz = O=C(O)[C@@H]1CSCN1
# Assays:
# [1] = target: Human immunodeficiency virus type 1 protease (Human immunodeficiency virus 1, UniProt Q72874); experiment: Inhibition of HIV1 protease
# [2] = target: T1, Type-1 angiotensin II receptor A (Rattus norvegicus, UniProt P25095); experiment: Displacement of [I125I]AngII form AT1 receptor in rat liver membrane incubated for 1.5 hrs by gamma counting method; format: cell membranes
# T1 sequence (P25095 whole entry): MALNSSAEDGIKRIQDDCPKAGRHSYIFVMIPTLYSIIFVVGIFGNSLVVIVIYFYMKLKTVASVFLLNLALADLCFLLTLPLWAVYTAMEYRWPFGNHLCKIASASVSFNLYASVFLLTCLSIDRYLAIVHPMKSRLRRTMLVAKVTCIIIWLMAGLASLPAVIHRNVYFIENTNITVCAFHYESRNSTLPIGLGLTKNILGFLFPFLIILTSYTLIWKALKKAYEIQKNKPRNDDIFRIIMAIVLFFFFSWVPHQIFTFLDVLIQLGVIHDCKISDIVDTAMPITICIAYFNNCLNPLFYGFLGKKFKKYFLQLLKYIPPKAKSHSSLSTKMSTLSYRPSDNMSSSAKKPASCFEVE
# [3] = target: T2, Type-2 angiotensin II receptor (Rattus norvegicus, UniProt P35351); experiment: Displacement of [I125I]AngII form AT2 receptor in rat liver membrane incubated for 1.5 hrs by gamma counting method; format: cell membranes
# T2 sequence (P35351 whole entry): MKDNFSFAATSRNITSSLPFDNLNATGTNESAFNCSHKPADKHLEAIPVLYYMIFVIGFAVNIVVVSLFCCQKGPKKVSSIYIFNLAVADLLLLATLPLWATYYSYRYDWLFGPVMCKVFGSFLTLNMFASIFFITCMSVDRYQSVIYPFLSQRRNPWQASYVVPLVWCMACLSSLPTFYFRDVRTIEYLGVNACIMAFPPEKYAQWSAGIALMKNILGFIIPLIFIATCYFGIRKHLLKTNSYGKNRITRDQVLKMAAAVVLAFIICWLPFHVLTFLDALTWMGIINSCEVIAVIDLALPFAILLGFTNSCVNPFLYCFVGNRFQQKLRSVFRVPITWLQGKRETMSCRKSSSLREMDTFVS
# [4] = Half life in rat at 10 mg/kg, po or iv; format: ADME, organism-based; details: in vivo
# [5] = Volume of distribution at steady state in rat at 10 mg/kg, iv; format: ADME, organism-based; details: in vivo, read-out: Vdss
# [6] = Oral bioavailability in rat at 10 mg/kg; format: ADME, organism-based; details: in vivo
# [7] = Volume of distribution at steady state in dog at 3 mg/kg, iv; format: ADME, organism-based, Canis lupus familiaris; details: in vivo, read-out: Vdss
# [8] = Half life in dog at 3 mg/kg, po or iv; format: ADME, organism-based, Canis lupus familiaris; details: in vivo
# [9] = Oral bioavailability in monkey at 3 mg/kg; format: ADME, organism-based, Macaca mulatta; details: rhesus monkey, in vivo
# [10] = Volume of distribution at steady state in monkey at 3 mg/kg, iv; format: ADME, organism-based, Macaca mulatta; details: rhesus monkey, in vivo, read-out: Vdss
# [11] = Clearance in rat at 10 mg/kg, iv; format: ADME, organism-based; details: in vivo
# [12] = Half life in monkey at 3 mg/kg, po or iv; format: ADME, organism-based, Macaca mulatta; details: rhesus monkey, in vivo
# [13] = Clearance in dog at 3 mg/kg, iv; format: ADME, organism-based, Canis lupus familiaris; details: in vivo
# [14] = Metabolic stability in pooled human liver microsomes assessed as parent compound remaining measured after 1 hr; format: ADME, Microsome; details: read-out: Stability
# [15] = Clearance in monkey at 3 mg/kg, iv; format: ADME, organism-based, Macaca mulatta; details: rhesus monkey, in vivo
# [16] = Oral bioavailability in dog at 3 mg/kg; format: ADME, organism-based, Canis lupus familiaris; details: in vivo
# [17] = system: Periplaneta americana; experiment: Diuretic activity in Periplaneta americana assessed as hindgut contraction by measuring lasting time incubated for 5 mins by myotropic assay; format: functional
# [18] = system: Periplaneta americana; experiment: Diuretic activity in Periplaneta americana assessed as hindgut contraction incubated for 5 mins by myotropic assay; format: functional
# [19] = system: Periplaneta americana; experiment: Diuretic activity in Periplaneta americana assessed as hindgut contraction by measuring maximal response incubated for 5 mins by myotropic assay relative to control; format: functional
# [20] = target: Angiotensin-converting enzyme (Homo sapiens, UniProt P12821); experiment: Inhibition of ACE (unknown origin)
# Sequence of Angiotensin-converting enzyme (P12821 whole entry): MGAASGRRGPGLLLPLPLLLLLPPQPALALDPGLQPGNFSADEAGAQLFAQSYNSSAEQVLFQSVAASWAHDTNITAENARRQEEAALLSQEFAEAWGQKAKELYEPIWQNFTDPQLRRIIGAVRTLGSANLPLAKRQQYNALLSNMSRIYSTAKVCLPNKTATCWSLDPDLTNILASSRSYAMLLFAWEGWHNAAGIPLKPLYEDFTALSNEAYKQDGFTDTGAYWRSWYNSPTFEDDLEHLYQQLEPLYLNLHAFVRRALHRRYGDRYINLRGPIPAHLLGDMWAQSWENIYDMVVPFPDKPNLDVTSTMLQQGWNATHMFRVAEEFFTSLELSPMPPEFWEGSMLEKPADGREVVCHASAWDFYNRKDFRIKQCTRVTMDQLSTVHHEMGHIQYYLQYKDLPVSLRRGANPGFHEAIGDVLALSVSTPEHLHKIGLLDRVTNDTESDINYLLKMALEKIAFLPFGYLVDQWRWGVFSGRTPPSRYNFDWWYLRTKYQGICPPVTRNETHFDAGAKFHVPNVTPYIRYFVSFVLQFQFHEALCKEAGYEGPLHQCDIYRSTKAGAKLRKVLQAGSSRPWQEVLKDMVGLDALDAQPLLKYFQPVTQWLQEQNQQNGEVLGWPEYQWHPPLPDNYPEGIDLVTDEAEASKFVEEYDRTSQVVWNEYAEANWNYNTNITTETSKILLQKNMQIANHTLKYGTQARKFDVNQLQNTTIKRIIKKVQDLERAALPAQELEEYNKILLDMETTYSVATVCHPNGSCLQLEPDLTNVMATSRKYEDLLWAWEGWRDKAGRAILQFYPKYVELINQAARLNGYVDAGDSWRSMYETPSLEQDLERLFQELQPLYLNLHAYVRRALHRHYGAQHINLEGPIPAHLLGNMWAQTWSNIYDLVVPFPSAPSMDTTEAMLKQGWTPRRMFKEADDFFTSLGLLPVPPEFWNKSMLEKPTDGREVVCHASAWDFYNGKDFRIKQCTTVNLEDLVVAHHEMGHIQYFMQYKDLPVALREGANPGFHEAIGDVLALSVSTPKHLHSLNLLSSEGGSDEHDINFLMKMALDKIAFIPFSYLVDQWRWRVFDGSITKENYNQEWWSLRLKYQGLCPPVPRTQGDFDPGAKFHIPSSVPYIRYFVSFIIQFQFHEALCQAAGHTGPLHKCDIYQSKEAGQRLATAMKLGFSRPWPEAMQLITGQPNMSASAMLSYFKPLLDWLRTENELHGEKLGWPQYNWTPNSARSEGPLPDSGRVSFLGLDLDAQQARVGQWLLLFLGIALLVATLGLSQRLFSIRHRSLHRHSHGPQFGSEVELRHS
# [21] = Octanol-water partition coefficient, logP of the compound; format: physicochemical
# [22] = target: D(2) dopamine receptor (Homo sapiens) (UniProt P14416); details: dose 1.0 10^-8M
# Sequence of D(2) dopamine receptor (Homo sapiens) (P14416 whole entry): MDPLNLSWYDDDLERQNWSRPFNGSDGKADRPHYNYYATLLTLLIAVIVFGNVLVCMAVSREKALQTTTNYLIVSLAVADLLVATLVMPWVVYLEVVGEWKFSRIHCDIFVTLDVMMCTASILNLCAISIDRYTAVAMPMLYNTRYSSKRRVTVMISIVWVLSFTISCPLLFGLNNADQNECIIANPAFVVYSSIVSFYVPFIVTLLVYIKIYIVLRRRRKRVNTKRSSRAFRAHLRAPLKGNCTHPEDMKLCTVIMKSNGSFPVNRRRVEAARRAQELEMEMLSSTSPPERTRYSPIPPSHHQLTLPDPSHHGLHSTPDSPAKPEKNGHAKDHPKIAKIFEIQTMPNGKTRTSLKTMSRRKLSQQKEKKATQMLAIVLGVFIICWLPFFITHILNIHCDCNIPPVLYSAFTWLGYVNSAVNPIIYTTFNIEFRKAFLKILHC
# [23] = target: Dipeptidyl peptidase 4 (Homo sapiens, UniProt P27487); experiment: Inhibition of DPP4 (unknown origin)
# Sequence of Dipeptidyl peptidase 4 (P27487 whole entry): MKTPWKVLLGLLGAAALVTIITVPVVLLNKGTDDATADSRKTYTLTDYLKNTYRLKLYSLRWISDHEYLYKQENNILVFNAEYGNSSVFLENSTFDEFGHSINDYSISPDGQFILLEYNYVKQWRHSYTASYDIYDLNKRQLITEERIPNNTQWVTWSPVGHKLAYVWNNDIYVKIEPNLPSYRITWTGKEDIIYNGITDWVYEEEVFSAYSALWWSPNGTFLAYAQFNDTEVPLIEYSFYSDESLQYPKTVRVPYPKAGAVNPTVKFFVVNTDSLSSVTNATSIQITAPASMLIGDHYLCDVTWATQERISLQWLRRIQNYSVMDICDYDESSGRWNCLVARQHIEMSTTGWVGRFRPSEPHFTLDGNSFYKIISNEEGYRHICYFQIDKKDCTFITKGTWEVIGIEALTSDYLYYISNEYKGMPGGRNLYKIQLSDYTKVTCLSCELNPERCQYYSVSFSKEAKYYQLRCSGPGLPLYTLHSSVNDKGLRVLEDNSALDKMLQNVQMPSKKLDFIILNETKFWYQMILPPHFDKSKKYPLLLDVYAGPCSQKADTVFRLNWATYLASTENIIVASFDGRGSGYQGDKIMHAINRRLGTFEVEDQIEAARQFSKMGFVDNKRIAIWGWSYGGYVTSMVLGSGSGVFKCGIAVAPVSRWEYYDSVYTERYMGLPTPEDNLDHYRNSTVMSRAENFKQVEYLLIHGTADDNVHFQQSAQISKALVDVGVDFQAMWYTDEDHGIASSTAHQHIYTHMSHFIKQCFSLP
# [24] = target: D(2) dopamine receptor (Homo sapiens) (UniProt P14416); details: dose 1.0 10^-7M
# [25] = target: Neurotensin receptor type 2 (Homo sapiens, UniProt O95665); experiment: Inhibition of human NTR2
# Sequence of Neurotensin receptor type 2 (O95665 whole entry): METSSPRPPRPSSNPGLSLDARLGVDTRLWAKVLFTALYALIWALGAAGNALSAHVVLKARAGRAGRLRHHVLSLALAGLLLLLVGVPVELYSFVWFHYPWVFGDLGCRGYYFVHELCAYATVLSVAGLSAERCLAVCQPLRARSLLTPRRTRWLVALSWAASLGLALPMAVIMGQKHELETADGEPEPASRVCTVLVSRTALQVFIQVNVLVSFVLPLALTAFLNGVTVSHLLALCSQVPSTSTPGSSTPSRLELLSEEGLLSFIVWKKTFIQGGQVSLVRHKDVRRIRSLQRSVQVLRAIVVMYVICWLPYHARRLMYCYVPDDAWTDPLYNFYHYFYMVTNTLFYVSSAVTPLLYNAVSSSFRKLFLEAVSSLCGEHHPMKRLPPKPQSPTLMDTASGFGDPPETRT
# [26] = target: T3, Prolyl endopeptidase (Homo sapiens, UniProt P48147); experiment: Inhibition of POP (unknown origin)
# T3 sequence (P48147 whole entry): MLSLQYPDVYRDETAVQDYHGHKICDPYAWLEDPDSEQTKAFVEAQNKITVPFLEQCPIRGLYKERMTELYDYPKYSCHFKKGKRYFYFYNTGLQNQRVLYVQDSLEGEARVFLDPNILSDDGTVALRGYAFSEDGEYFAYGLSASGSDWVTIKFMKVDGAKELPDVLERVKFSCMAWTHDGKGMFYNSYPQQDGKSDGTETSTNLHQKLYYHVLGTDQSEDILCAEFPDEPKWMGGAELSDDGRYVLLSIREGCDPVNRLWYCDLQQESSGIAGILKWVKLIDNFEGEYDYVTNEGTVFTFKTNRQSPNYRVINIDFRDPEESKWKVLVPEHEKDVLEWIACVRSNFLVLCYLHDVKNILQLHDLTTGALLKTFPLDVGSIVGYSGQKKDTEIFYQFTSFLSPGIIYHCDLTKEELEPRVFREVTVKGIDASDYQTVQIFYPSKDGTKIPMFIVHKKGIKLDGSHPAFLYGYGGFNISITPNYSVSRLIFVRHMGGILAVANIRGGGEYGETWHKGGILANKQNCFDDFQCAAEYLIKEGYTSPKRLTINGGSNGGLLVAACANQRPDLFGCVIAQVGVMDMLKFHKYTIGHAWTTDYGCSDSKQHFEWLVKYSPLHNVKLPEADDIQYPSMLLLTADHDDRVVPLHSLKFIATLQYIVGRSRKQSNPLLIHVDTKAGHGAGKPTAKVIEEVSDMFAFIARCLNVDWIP
# [27] = Half life in rat at 2 mg/kg, po; format: ADME, organism-based; details: in vivo
# [28] = Oral bioavailability in rat at 2 mg/kg; format: ADME, organism-based; details: in vivo
# [29] = Tmax in rat at 10 mg/kg, ID; format: ADME, organism-based; details: in vivo
# [30] = Bioavailability in rat under fed condition at 10 mg/kg, ID; format: ADME, organism-based; details: in vivo
# [31] = Half life in rat at 10 mg/kg, iv; format: ADME, organism-based; details: in vivo
# [32] = Bioavailability in rat under fasted condition at 10 mg/kg, ID; format: ADME, organism-based; details: in vivo
smiles,measurement,setting,value
CC(C)(C)NC(=O)[C@@H]1CSCN1C(=O)[C@@H](O)[C@H](Cc1ccccc1)NC(=O)[C@H](CC(N)=O)NC(=O)COc1cccc2ccccc12,IC50,[1],8.8 nM
CC(C)C[C@H](NC(=O)[C@H](CCCNC(=N)N)NC(=O)[C@@H](N)CC(=O)O)C(=O)N[C@@]1(Cc2ccc(O)cc2)CC(=O)N2[C@H]1SC[C@H]2C(=O)N[C@@H](Cc1c[nH]cn1)C(=O)N1CCC[C@H]1C(=O)N[C@@H](Cc1ccccc1)C(=O)O (H-DRL[X3]HPF-OH),Ki,[2],> 10000 nM
same,Ki,[3],1 nM
CC(C)[C@@H](Nc1ccc(CNC(=O)[C@@H]2SCCN2C(=O)C[C@H](N)Cc2cc(F)c(F)cc2F)cc1)C(=O)O,half-life,[4],> 3 h
same,Vd,[5],0.3 L/kg
same,bioavailability,[6],< 2.5%
same,Vd,[7],0.3 L/kg
same,half-life,[8],> 3 h
same,bioavailability,[9],< 2.5%
same,Vd,[10],0.3 L/kg
same,clearance,[11],16.7 mL/min/kg
same,half-life,[12],> 3 h
same,clearance,[13],16.7 mL/min/kg
same,remaining at 1 h,[14],98.9%
same,clearance,[15],16.7 mL/min/kg
same,bioavailability,[16],< 2.5%
CC1(C)OC[C@@H](C(=O)N[C@@H](Cc2c[nH]c3ccccc23)C(=O)NCC(N)=O)N1C(=O)[C@H](Cc1ccccc1)NC(=O)[C@@H](N)Cc1ccccc1 (H-FF[X2]WG-NH2),Time,[17],120 s
same,EC50,[18],0.614 nM
same,Activity,[19],120.1%
C[C@H](CS)C(=O)N1CSC[C@H]1C(=O)O,IC50,[20],372 nM
C[Si]1(C)C[C@@H](C(=O)O)N(C(=O)OCC2c3ccccc3-c3ccccc32)C1,logP,[21],1.3
NC(=O)[C@H]1CS[C@@H]2CC[C@]3(CCCN3C(=O)[C@@H]3CCCN3)C(=O)N12,inhibition,[22],14.6%
CC1(C)SC[C@@H](C(=O)N[C@@H](Cc2c[nH]c3ccccc23)C(=O)NCC(N)=O)N1C(=O)[C@H](Cc1ccccc1)NC(=O)[C@@H](N)Cc1ccccc1 (H-FF[X1]WG-NH2),Time,[17],108 s
same,EC50,[18],0.708 nM
same,Activity,[19],100.6%
CC(C)(C)NC(=O)[C@@H]1CCCN1C(=O)[C@@H](O)[C@H](Cc1ccccc1)NC(=O)[C@H](CC(N)=O)NC(=O)OCc1ccccc1,IC50,[1],89 nM
CC(C)(C)NC(=O)[C@H]1N(C(=O)[C@@H](O)[C@H](Cc2ccccc2)NC(=O)[C@H](CC(N)=O)NC(=O)COc2cccc3ccccc23)CSC1(C)C,IC50,[1],2.8 nM
O=C(O)[C@@H]1CCCN1C(=O)OCC1c2ccccc2-c2ccccc21,logP,[21],0.094
CC(C)[C@H](Nc1ccc(CNC(=O)[C@@H]2CSCN2C(=O)C[C@H](N)Cc2cc(F)ccc2F)cc1)C(=O)O,bioavailability,[6],< 2.5%
same,IC50,[23],0.3 nM
same,bioavailability,[9],< 2.5%
same,bioavailability,[16],< 2.5%
CSC[C@H](NC(=O)COc1cccc2cnccc12)C(=O)N[C@@H](Cc1ccccc1)[C@H](O)C(=O)N1CSC[C@H]1C(=O)NC(C)(C)C,IC50,[1],6.5 nM
same,Ki,[1],0.74 nM
NC(=O)[C@@H]1CS[C@@H]2CC[C@]3(CCCN3C(=O)[C@@H]3CCCN3)C(=O)N21,inhibition,[24],21.4%
CC[C@H](C)[C@H](NC(=O)[C@H](Cc1ccc(O)cc1)NC(=O)[C@@H]1C[Si](C)(C)CN1C(=O)[C@H](CCCCN)NC(=O)[C@@H](N)CCCCN)C(=O)N[C@@H](CC(C)C)C(=O)O,IC50,[25],5 nM
N#C[C@@H]1CS[C@H]2C[C@H](NC(=O)OCc3ccccc3)C(=O)N12,IC50,[26],100000 nM
CC(C)[C@H](Nc1ccc(CNC(=O)[C@@H]2CCCN2C(=O)C[C@H](N)Cc2cc(F)ccc2F)cc1)C(=O)O,half-life,[27],0.63 h
same,IC50,[23],0.48 nM
same,bioavailability,[28],1.2%
Cc1ccccc1CNC(=O)[C@H]1N(C(=O)[C@@H](O)[C@H](Cc2ccccc2)NC(=O)c2cccc(O)c2C)CSC1(C)C,Tmax,[29],1 h
same,bioavailability,[30],33%
same,half-life,[31],1.55 h
same,bioavailability,[32],33%
C[C@H](CS)C(=O)N1CCS[C@H]1C(=O)O,IC50,[20],832 nM
NC(=O)CNC(=O)[C@H](Cc1c[nH]c2ccccc12)NC(=O)[C@@H]1CCCN1C(=O)[C@H](Cc1ccccc1)NC(=O)[C@@H](N)Cc1ccccc1 (H-FFPWG-NH2),Time,[17],72 s
same,EC50,[18],0.794 nM
same,Activity,[19],66.8%
NC(=O)CNC(=O)[C@H](Cc1c[nH]c2ccccc12)NC(=O)[C@@H]1CSCN1C(=O)[C@H](Cc1ccccc1)NC(=O)[C@@H](N)Cc1ccccc1 (H-FF[Thz]WG-NH2),Time,[17],78 s
same,EC50,[18],0.736 nM
same,Activity,[19],71.5%
CC[C@H](C)[C@H](NC(=O)[C@H](Cc1ccc(O)cc1)NC(=O)[C@@H]1CCCN1C(=O)[C@H](CCCCN)NC(=O)[C@@H](N)CCCCN)C(=O)N[C@@H](CC(C)C)C(=O)O,IC50,[25],0.47 nM
CC(C)C[C@H](NC(=O)[C@H](CCCNC(=N)N)NC(=O)[C@@H](N)CC(=O)O)C(=O)N[C@@]1(Cc2ccc(O)cc2)CC(=O)N2[C@H](C(=O)N[C@@H](Cc3c[nH]cn3)C(=O)N3CCC[C@H]3C(=O)N[C@@H](Cc3ccccc3)C(=O)O)CS[C@@H]21 (H-DRL[X4]HPF-OH),Ki,[2],> 10000 nM
same,Ki,[3],3.7 nM
CC(C)(C)NC(=O)[C@@H]1CSCN1C(=O)[C@@H](O)[C@H](Cc1ccccc1)NC(=O)[C@H](CC(N)=O)NC(=O)OCc1ccccc1,IC50,[1],31 nM
